Consider eight compounds from ChEMBL document CHEMBL1201862, “PubChem BioAssay data set” (2004).

What all share (assay): growth of human tumour cells (NCI), 48 h
Test [1] deals with EKVX.
In test [2] the test system is SK-MEL-5.
Test [3] concerns HCT-116.
The subject of test [4] is KM12.
In test [5] the test system is CAKI-1.
For test [6], the system named is SF-295.
The test system of test [7] is OVCAR-5.
The test system of test [8] is SNB-75.
Test [9] deals with SF-268.
Test [10] deals with K562.
In test [11] the test system is NCI-H23.
The test system of test [12] is A498.
The test system of test [13] is IGROV-1.
Test [14] relates to CCRF-CEM.
Test [15] has as its system HCC 2998.
Test [16] relates to A549.
Test [17] concerns MOLT-4.
Test [18] has as its system HL-60.

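Protocol summary: plate cells (96-well), add compound at 5 concentrations, incubate 48 h, interpolate endpoints linearly. GI50 marks 50% less growth.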 The source made the active and inactive calls. No stated cut-off is given here; in the data, active = GI50 up to about 1.1 µM and inactive = higher.

For `Cc1ccc(SC2C(C)(C)N(C(C)C)P2(=O)N(C(C)C)C(C)C)cc1` (configuration not stated), the GI50 was 26.4 µM (inactive) in test [1]; 22.4 µM (inactive) in test [2]; 26.4 µM (inactive) in test [3]; > 100 µM (inactive) in [4]; 47 µM (inactive) in [5]; 70.8 µM (inactive) in test [6]. The GI50 is > 100 µM (inactive) in test [7]; > 100 µM (inactive) in [8]; 52 µM (inactive) in test [9]; 17.7 µM (inactive) in test [10]; 26.7 µM (inactive) in test [11]; > 100 µM (inactive) in test [12]. Further, the GI50 in test [13] is > 86.3 µM (inactive); in [14], 31.8 µM (inactive); in [15] it was 64.3 µM (inactive); in [16] it was > 45 µM (inactive); in [17] it was 30.2 µM (inactive); in test [18], 14.7 µM (inactive).
Turning to `N#Cc1ccc(/C=N\N2C(=O)c3ccccc3C2=O)cc1`, the GI50 in test [1], in test [2], in [3], in test [4], in [5] and in test [6] was > 100 µM (inactive) in each case. Also, the GI50 in test [7], in test [8], in test [9], in test [10], in test [11] and in test [12] was > 100 µM (inactive) throughout. The GI50 in test [13], in test [14], in test [15], in test [16], in [17] and in test [18] was > 100 µM (inactive) throughout.
For the compound `N#Cc1ccc(Sc2ccccc2)cc1C#N`, the GI50 in [1] was > 100 µM (inactive); in [2] it was > 100 µM (inactive); in test [3], 20.7 µM (inactive); in test [4] it was > 100 µM (inactive); in test [5] it was > 100 µM (inactive); in test [6], 39.9 µM (inactive). Moreover, the GI50 is > 100 µM (inactive) in [7]; 21.7 µM (inactive) in test [8]; 22.6 µM (inactive) in test [9]; 45.8 µM (inactive) in test [10]; 50.5 µM (inactive) in test [11]; > 100 µM (inactive) in [12]. Besides, the GI50 was > 100 µM (inactive) in test [13]; 18.1 µM (inactive) in [14]; > 100 µM (inactive) in test [15]; > 100 µM (inactive) in test [16]; > 100 µM (inactive) in test [17]; > 100 µM (inactive) in test [18].
As for `C/C(=N/N)c1sc(-c2nc(C)c(/C(C)=N\N)s2)nc1C`, the GI50 in test [1], in test [2], in [3], in test [4], in test [5] and in test [6] was > 100 µM (inactive) throughout. Also, the GI50 was > 100 µM (inactive) in test [7]; > 100 µM (inactive) in test [8]; > 100 µM (inactive) in test [9]; 47.3 µM (inactive) in test [10]; > 100 µM (inactive) in test [11]; > 100 µM (inactive) in test [12]. Moreover, the GI50 is > 100 µM (inactive) in test [13]; 27.2 µM (inactive) in [14]; > 100 µM (inactive) in test [15]; > 100 µM (inactive) in test [16]; 24.5 µM (inactive) in test [17]; 30.1 µM (inactive) in test [18].
Take `O=C1C=C(Nc2ccccc2C(=O)CC(=O)C(=O)Nc2ccc(Cl)cc2)c2ccccc2C1=O`: the GI50 in [1] is 32.4 µM (inactive); in [2], 4.32 µM (inactive); in test [3], 6.18 µM (inactive); in [4] it was 14.6 µM (inactive); in [5], 29.8 µM (inactive); in test [7] it was 19.6 µM (inactive). Further, the GI50 in test [8] was 17.1 µM (inactive); in [9] it was 14.2 µM (inactive); in [10], 3.24 µM (inactive); in test [11], 9.91 µM (inactive); in test [12], > 100 µM (inactive); in test [13], 27.4 µM (inactive). In addition, the GI50 was 3.59 µM (inactive) in test [14]; 17.5 µM (inactive) in test [15]; 14.4 µM (inactive) in test [16]; 5.05 µM (inactive) in [17]; 3.32 µM (inactive) in test [18].
Turning to `COc1cc(=O)oc(/C=C/CO)c1C`, the GI50 in test [1], in test [2], in test [3], in [4], in test [5] and in [6] was > 100 µM (inactive) each time. Besides, the GI50 in [7], in test [8], in [9], in test [10], in [11] and in test [12] was > 100 µM (inactive) each time. Also, the GI50 in test [13], in [14], in test [15], in test [16], in test [17] and in [18] was > 100 µM (inactive) in each case.
For `O=C1OC(CC(=O)c2ccc(Cl)cc2Cl)C(Cl)=C1Cl` (configuration not stated), the GI50 was > 54.7 µM (inactive) in test [1]; 45.6 µM (inactive) in test [2]; 18.2 µM (inactive) in test [3]; > 100 µM (inactive) in test [4]; 30.8 µM (inactive) in [5]; > 100 µM (inactive) in [6]. Besides, the GI50 in test [7] is > 45.1 µM (inactive); in test [8], > 43.7 µM (inactive); in test [9] it was 25.2 µM (inactive); in test [10], 29.1 µM (inactive); in [11] it was 28.9 µM (inactive); in test [12], > 100 µM (inactive). The GI50 was > 41 µM (inactive) in [13]; 25.7 µM (inactive) in test [14]; 15.8 µM (inactive) in test [15]; > 100 µM (inactive) in test [16]; 24.8 µM (inactive) in [17]; 26.7 µM (inactive) in [18].
For `O=S(O)CCCCSSCc1ccccc1CSSCCCCS(=O)O`, the GI50 is 22.2 µM (inactive) in test [1]; 8.79 µM (inactive) in [2]; 19 µM (inactive) in test [4]; 25.8 µM (inactive) in test [5]; 17 µM (inactive) in [6]; 95.1 µM (inactive) in test [7]. Further, the GI50 in [8] was 9.16 µM (inactive); in test [9], 12.5 µM (inactive); in test [10], 16.6 µM (inactive); in test [11] it was 18 µM (inactive); in test [12], 40.7 µM (inactive); in [13] it was 49.4 µM (inactive). The GI50 in test [14] is 3.88 µM (inactive); in [15], 19 µM (inactive); in test [16], 28.8 µM (inactive); in test [17], 0.904 µM (active); in [18], 5.69 µM (inactive).
